How the values were obtained:
[1] = system: barnyardgrass; experiment: Test A pre-/postemergence herbicide test; assay type: in vivo, Echinochloa crus-galli
How it was run: (§1)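 Visual injury rating on a 0–100 scale (0 no effect, 100 complete control) versus untreated controls, about ten days after treatment in greenhouse. Pre: directed soil spray onto seeded sandy loam. Post: spray to runoff on plants 2–10 cm tall at one- to two-leaf stage.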

[2] = system: large crabgrass; experiment: Test A pre-/postemergence herbicide test; assay type: in vivo, Digitaria sanguinalis
How it was run: as §1

[3] = system: giant foxtail; experiment: Test A pre-/postemergence herbicide test; assay type: in vivo, Setaria faberi
How it was run: as §1

[4] = system: morningglory; experiment: Test A pre-/postemergence herbicide test; assay type: in vivo, Ipomoea spp.
How it was run: as §1

[5] = system: redroot pigweed; experiment: Test A pre-/postemergence herbicide test; assay type: in vivo, Amaranthus retroflexus
How it was run: as §1

[6] = system: velvetleaf; experiment: Test A pre-/postemergence herbicide test; assay type: in vivo, Abutilon theophrasti
How it was run: as §1

[7] = system: barnyardgrass; experiment: Test B pre-/postemergence herbicide test; assay type: in vivo, Echinochloa crus-galli
How it was run: (§2)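 Visual rating, 0 (no effect) to 100 (complete control), versus untreated controls after 13–15 d in greenhouse. Pre- and postemergence applications (postemergence plants 2–18 cm, 1–4 leaves); flooded paddy arm at 2-leaf stage. Compounds in non-phytotoxic solvent plus surfactant.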

[8] = system: Surinam grass; experiment: Test B pre-/postemergence herbicide test; assay type: in vivo, Urochloa decumbens
How it was run: as §2

[9] = system: cocklebur; experiment: Test B pre-/postemergence herbicide test; assay type: in vivo, Xanthium strumarium
How it was run: as §2

[10] = system: corn; experiment: Test B pre-/postemergence herbicide test; assay type: in vivo, Zea mays
How it was run: as §2

[11] = system: large crabgrass; experiment: Test B pre-/postemergence herbicide test; assay type: in vivo, Digitaria sanguinalis
How it was run: as §2

[12] = system: giant foxtail; experiment: Test B pre-/postemergence herbicide test; assay type: in vivo, Setaria faberi
How it was run: as §2

[13] = system: lambsquarters; experiment: Test B pre-/postemergence herbicide test; assay type: in vivo, Chenopodium album
How it was run: as §2

[14] = system: morningglory; experiment: Test B pre-/postemergence herbicide test; assay type: in vivo, Ipomoea coccinea
How it was run: as §2

[15] = system: pigweed; experiment: Test B pre-/postemergence herbicide test; assay type: in vivo, Amaranthus retroflexus
How it was run: as §2

[16] = system: rice; experiment: Test B pre-/postemergence herbicide test; assay type: in vivo, Oryza sativa; details: preemergence
How it was run: as §2

[17] = system: velvetleaf; experiment: Test B pre-/postemergence herbicide test; assay type: in vivo, Abutilon theophrasti
How it was run: as §2

[18] = system: blackgrass; experiment: Test B postemergence herbicide test; assay type: in vivo, Alopecurus myosuroides; details: scale 0 (no effect) to 100 (complete control)
How it was run: (§3)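 Visual ratings, 0 (no effect) to 100 (complete control), made versus controls after 13–15 d greenhouse. Paddy plants treated at 2-leaf stage; postemergence plants at 1- to 4-leaf stage, 2–18 cm tall.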

[19] = system: wheat; experiment: Test B postemergence herbicide test; assay type: in vivo, Triticum aestivum; parameters: key to Wheat plant response rating: 0 = no effect, 100 = complete control; details: scale 0 (no effect) to 100 (complete control)
How it was run: (§4)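 After treating 2-leaf paddy plants or 2–18 cm postemergence plants (1 to 4 leaves) with formulated chemical, researchers kept them in a greenhouse for 13–15 days. Effects were judged visually versus controls: 0 indicates none, 100 total control.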

[20] = system: wild oat; experiment: Test B postemergence herbicide test; assay type: in vivo, Avena fatua; details: scale 0 (no effect) to 100 (complete control)
How it was run: as §4

[21] = system: rice; experiment: Test B flooded paddy test; assay type: in vivo, Oryza sativa; details: 1000 g ai/ha, visual rating, scale 0 to 100 (0 no effect, 100 complete control), 13 to 15 days
How it was run: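 Read-out: visual comparison with controls, scored 0 to 100, where 100 means complete control and 0 no effect. Formulated chemicals were applied postemergence to plants 2–18 cm tall (1- to 4-leaf), or to flooded-paddy plants at the 2-leaf stage, then held 13 to 15 days under glass.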

[22] = system: small flower umbrella sedge; experiment: Test B flooded paddy test; assay type: in vivo, Cyperus difformis; details: 1000 g ai/ha, visual rating, scale 0 to 100 (0 no effect, 100 complete control), 13 to 15 days
How it was run: as §3

[23] = system: ducksalad; experiment: Test B flooded paddy test; assay type: in vivo, Heteranthera limosa; details: 1000 g ai/ha, visual rating, scale 0 to 100 (0 no effect, 100 complete control), 13 to 15 days
How it was run: as §3

[24] = system: barnyardgrass; experiment: Test B flooded paddy test; assay type: in vivo, Echinochloa crus-galli; details: 1000 g ai/ha, visual rating, scale 0 to 100 (0 no effect, 100 complete control), 13 to 15 days
How it was run: as §3

[25] = Postemergence, 500 g ai/ha, 0 to 100 scale, 0 no effect, 100 complete control
[26] = Postemergence, 2000 g ai/ha, 0 to 100 scale, 0 no effect, 100 complete control
[27] = Preemergence, 500 g ai/ha, visual rating, 0 to 100 scale (0 no effect, 100 complete control)
[28] = Preemergence, 2000 g ai/ha, 0 to 100 scale, 0 no effect, 100 complete control
[29] = 500 g ai/ha, visual rating 0-100, 0 no effect, 100 complete control, preemergence
[30] = Postemergence, 500 g ai/ha, visual rating after 13 to 15 days, scale 0 (no effect) to 100 (complete control)
[31] = postemergence, 125 g ai/ha, visual rating, scale 0 (no effect) to 100 (complete control)
[32] = preemergence, 125 g ai/ha, 0 to 100 scale, 0 is no effect, 100 is complete control
[33] = Postemergence, 500 g ai/ha, visual rating after 13 to 15 days
[34] = postemergence, 125 g ai/ha, visual rating

For `CCCOC(=O)c1cccc(NC(=O)c2cc(C(C)(C)C)nn2CC)c1C` [Compound 90], the “Barnyardgrass plant response rating” value [1, 25] was 20, the “Plant response rating, Barnyardgrass” value [1, 26] was 20 and the “Barnyardgrass plant response rating” value [1, 27] was 20. For the same compound, the “Barnyardgrass plant response rating” value [1, 28] was 50, the “Crabgrass, Large plant response rating” value [2, 25] was 15 and the “Plant response rating, Crabgrass, Large” value [2, 26] was 25. The “Crabgrass, Large plant response rating” value [2, 27] was 35, the “Crabgrass, Large plant response rating” value [2, 28] was 75 and the “Foxtail, Giant plant response rating” value [3, 25] was 20. The “Plant response rating, Foxtail, Giant” value [3, 26] was 20, the “Foxtail, Giant plant response rating” value [3, 27] was 25 and the “Foxtail, Giant plant response rating” value [3, 28] was 60. For the same compound, the “Morningglory plant response rating” value [4, 25] was 10, the “Plant response rating, Morningglory” value [4, 26] was 10 and the “Morningglory plant response rating” value [4, 27] was 0. For the same compound, the “Morningglory plant response rating” value [4, 28] was 30, the “Pigweed plant response rating” value [5, 25] was 20 and the “Plant response rating, Pigweed” value [5, 26] was 40. The “Pigweed plant response rating” value [5, 27] was 25, the “Pigweed plant response rating” value [5, 28] was 70 and the “Velvetleaf plant response rating” value [6, 25] was 10. For the same compound, the “Plant response rating, Velvetleaf” value [6, 26] was 30, the “Velvetleaf plant response rating” value [6, 27] was 20 and the “Velvetleaf plant response rating” value ([6]; Preemergence, 2000 g ai/ha, visual rating, 0 to 100 scale (0 no effect, 100 complete control)) was 35. The “Plant response rating, Barnyardgrass” value [7, 29] was 20, the “Plant response rating, Barnyardgrass” value [7, 30] was 30 and the “Barnyardgrass plant response rating” value [7, 31] was 0. For the same compound, the “Plant response rating, Barnyardgrass” value [7, 32] was 10, the “Plant response rating, Surinam Grass” value [8, 29] was 20 and the “Plant response rating, Surinam Grass” value [8, 30] was 10. For the same compound, the “Surinam Grass plant response rating” value [8, 31] was 10, the “Plant response rating, Surinam Grass” value [8, 32] was 0 and the “Plant response rating, Cocklebur” value [9, 29] was 0. For the same compound, the “Plant response rating, Cocklebur” value [9, 30] was 60, the “Cocklebur plant response rating” value [9, 31] was 10 and the “Plant response rating, Cocklebur” value [9, 32] was 0. The “Plant response rating, Corn” value [10, 29] was 20, the “Plant response rating, Corn” value [10, 30] was 10 and the “Corn plant response rating” value [10, 31] was 10. The “Plant response rating, Corn” value [10, 32] was 0, the “Plant response rating, Crabgrass, Large” value [11, 29] was 70 and the “Plant response rating, Crabgrass, Large” value [11, 30] was 10. For the same compound, the “Crabgrass, Large plant response rating” value [11, 31] was 10, the “Plant response rating, Crabgrass, Large” value [11, 32] was 10 and the “Plant response rating, Foxtail, Giant” value [12, 29] was 60. The “Plant response rating, Foxtail, Giant” value [12, 30] was 10, the “Foxtail, Giant plant response rating” value [12, 31] was 10 and the “Plant response rating, Foxtail, Giant” value [12, 32] was 10. The “Plant response rating, Lambsquarters” value [13, 29] was 90, the “Plant response rating, Lambsquarters” value [13, 30] was 50 and the “Lambsquarters plant response rating” value [13, 31] was 50. For the same compound, the “Plant response rating, Lambsquarters” value [13, 32] was 0, the “Plant response rating, Morningglory” value [14, 29] was 10 and the “Plant response rating, Morningglory” value [14, 30] was 40. The “Morningglory plant response rating” value [14, 31] was 10, the “Plant response rating, Morningglory” value [14, 32] was 0 and the “Plant response rating, Pigweed” value [15, 29] was 80. For the same compound, the “Plant response rating, Pigweed” value [15, 30] was 40, the “Pigweed plant response rating” value [15, 31] was 30 and the “Plant response rating, Pigweed” value [15, 32] was 10. For the same compound, the “Plant response rating, Rice” value ([16]; 500 g ai/ha, visual rating 0-100, 0 no effect, 100 complete control) was 0, the “Plant response rating, Rice” value ([16]; 125 g ai/ha, 0 to 100 scale, 0 is no effect, 100 is complete control) was 0 and the “Plant response rating, Velvetleaf” value [17, 29] was 20. For the same compound, the “Plant response rating, Velvetleaf” value [17, 30] was 30, the “Velvetleaf plant response rating” value [17, 31] was 10 and the “Plant response rating, Velvetleaf” value [17, 32] was 0. For the same compound, the “Plant response rating, Blackgrass” value [18, 33] was 10, the “Blackgrass plant response rating” value [18, 34] was 0 and the “Plant response rating, Wheat” value [19, 33] was 10. The “Wheat plant response rating” value [19, 34] was 10, the “Plant response rating, Oat, Wild” value [20, 33] was 30 and the “Oat, Wild plant response rating” value [20, 34] was 10. The “Rice plant response rating” value [21] was 10, the “Sedge, Umbrella plant response rating” value [22] was 50 and the “Ducksalad plant response rating” value [23] was 30. The “Barnyardgrass plant response rating” value [24] was 10.

Reference: US20060069132A1, “Azolecarboxamide herbicides” (priority 2004, published 2006)
